Paper PMC3260207, “Site-Directed Mutations and the Polymorphic Variant Ala160Thr in the Human Thromboxane Receptor Uncover a Structural Role for Transmembrane Helix 4” (PLoS ONE, 2012)
Positions count from the first letter of the chain named.

How the values were obtained:
Test in all cases: Saturation radioligand binding with [3H] SQ 29,548, membranes
Settings in all cases: picomoles of TP per milligram of total membrane protein, mean ± S.E
[1] = target: T1, TP A160S mutant (Homo sapiens, UniProt P21731, A160S)
T1 construct: expressed in transfected cells; HEK293T (calcium assays)
T1 sequence (P21731 1-343 A160S): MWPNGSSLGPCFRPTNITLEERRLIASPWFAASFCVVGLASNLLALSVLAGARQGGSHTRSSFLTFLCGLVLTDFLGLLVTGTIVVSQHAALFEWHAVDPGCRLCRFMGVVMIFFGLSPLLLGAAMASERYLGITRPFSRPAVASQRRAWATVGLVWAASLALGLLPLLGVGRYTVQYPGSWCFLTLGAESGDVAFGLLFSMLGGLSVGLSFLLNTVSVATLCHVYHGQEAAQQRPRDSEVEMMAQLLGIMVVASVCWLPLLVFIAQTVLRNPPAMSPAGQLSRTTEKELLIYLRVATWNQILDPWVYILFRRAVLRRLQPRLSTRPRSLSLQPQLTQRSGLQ
Procedure: (§1) Amino acid substitutions were introduced into the synthetic TPα gene carried by the expression vector pMT4 as described previously, [29]. DNA sequences of all the mutated genes were verified by automated DNA sequencing. To minimize variations in transfection efficiency, the total amount transfected DNA was kept constant in all cases at 1 µg of DNA per 7×10^5 cells. The wild type TP or mutant genes were expressed in COS-1 cells using a DEAE-dextran based transient transfection method, [29], and in HEK293T cells using lipofectamine 2000 (Invitrogen). Except unless specified, the membranes prepared from COS-1 cells were used for radioligand binding assays and immunoblots. For intracellular calcium determination assays and immunofluorescence imaging, HEK293T cells were used. For transient transfections of HEK293T cells using the plasmid pMT4, lipofectamine 2000 (Invitrogen) mediated transfection was used as described by the manufacturer. Membranes were prepared using Buffers A and B and as described previously, [29]. The protein concentration in the resuspended membrane pellet was determined using a modified DC protein assay kit from Bio-Rad Laboratories (Hercules, CA).
(§2) These were carried out in Buffer C for 60 min at room temperature, using 2 to 20 µg of membrane protein and different concentrations of [^3H] […] Binding of [^3H] […] Competition binding assays were performed using 4 nM [^3H] […] Binding was terminated by filtering under vacuum on GF/A filters (Millipore). Filter-bound radioactivity was measured using a liquid scintillation counter. Equilibrium dissociation constants (Kd) were determined from saturation isotherms using PRISM software version 5.0 (GraphPad Software Inc, San Diego, CA, USA). The Ki values were calculated from the IC50, using the equation of Cheng and Prusoff by PRISM software version 5.0.

[2] = target: T2, TP A160T mutant (nsSNP variant) (Homo sapiens, UniProt P21731, A160T)
T2 construct: expressed in transfected cells; HEK293T (calcium assays)
T2 sequence (P21731 1-343 A160T): T1 sequence (P21731 1-343 A160S) with S160T
Procedure: as §1, §2

[3] = target: T3, TP A160V mutant (Homo sapiens, UniProt P21731, A160V)
T3 construct: expressed in transfected cells; HEK293T (calcium assays)
T3 sequence (P21731 1-343 A160V): T1 sequence (P21731 1-343 A160S) with S160V
Procedure: as §1, §2

[4] = target: T4, TP F107A mutant (Homo sapiens, UniProt P21731, F107A)
T4 construct: expressed in transfected cells; HEK293T (calcium assays)
T4 sequence (P21731 1-343 F107A): T1 sequence (P21731 1-343 A160S) with F107A, S160A
Procedure: as §1, §2

[5] = target: T5, TP V110A mutant (Homo sapiens, UniProt P21731, V110A)
T5 construct: expressed in transfected cells; HEK293T (calcium assays)
T5 sequence (P21731 1-343 V110A): T1 sequence (P21731 1-343 A160S) with V110A, S160A
Procedure: as §1, §2

[6] = target: T6, WT-TP (wild type human thromboxane A2 receptor TPα) (Homo sapiens, UniProt P21731)
T6 construct: expressed in transfected cells; HEK293T (calcium assays)
T6 sequence (P21731 1-343): T1 sequence (P21731 1-343 A160S) with S160A
Procedure: as §1, §2

Bmax, binding maximum of the ligand SQ 29,548 for the receptor [1]: 5.8 ± 0.5 pmol/mg | Bmax, binding maximum of the ligand SQ 29,548 for the receptor [2]: 1.8 ± 0.4 pmol/mg | Bmax, binding maximum of the ligand SQ 29,548 for the receptor [3]: 1.9 ± 0.3 pmol/mg | Bmax, binding maximum of the ligand SQ 29,548 for the receptor [4]: 1.8 ± 0.2 pmol/mg | Bmax, binding maximum of the ligand SQ 29,548 for the receptor [5]: 1.8 ± 0.3 pmol/mg | Bmax, binding maximum of the ligand SQ 29,548 for the receptor [6]: 3.8 ± 0.3 pmol/mg
SMILES: O=C(O)CCC/C=C\C[C@@H]1[C@H](CNNC(=O)Nc2ccccc2)[C@H]2CC[C@@H]1O2 [SQ 29,548]
